EC50 data for 11 molecules are collected here from patent US9334279B2, “Hepatitis C virus inhibitors” (BRISTOL-MYERS SQUIBB COMPANY, priority 2012, dated 2016).

By EC50 is commonly meant the concentration at which the effect is half-maximal.

The structures appear in SMILES notation. Where two headings read alike, the source gives them in different places.

One experiment has as its system HCV GT1a(H77) replicon. The experiment is described as follows: HCV replicon luciferase reporter assay, genotype 1a. Type of experiment: cell-based, HCV genotype 1a. The following applies: Hepatitis C virus, 72 h, HUH-7 cells, Renilla luciferase, 3 days incubation. In short, it runs like this:
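Huh-7 cells stably carried a GT1a(H77) Renilla luciferase replicon with NS3 P1496L and NS5A S2204I adaptive mutations. Luminescence was read after 2 h with 7.5 μM EnduRen, and EC50 came from a four-parameter logistic fit; CC50 came from multiplexed Cell Titer-Blue (8 h).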
On the technique in general: A replicon is a self-replicating genome or part of one, used to study replication in cells.

In a further experiment the test system is HCV GT1b(Con1) replicon. The experiment is described as follows: HCV replicon luciferase reporter assay, genotype 1b. Type of experiment: cell-based, HCV genotype 1b. The following applies: Hepatitis C virus, 72 h, HUH-7 cells, Renilla luciferase, 3 days incubation. In short, it runs like this: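 HUH-7 cells stably carrying a Con1 GT1b replicon with Renilla luciferase and Ser1179Ile adaptive mutation; 3.0×10^3 cells/well, DMEM 4% FCS, 0.5% DMSO, twenty-point 3-fold titration, 3 days 37 °C. Luminescence 2 h after 7.5 μM EnduRen; EC50 by four-parameter logistic fit. CC50 from multiplexed Cell Titer-Blue fluorescence (8 h).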

As to `CC(C)Oc1ccc(-c2cc(O[C@@H]3C[C@H]4C(=O)N[C@]5(C(=O)NS(=O)(=O)C6(C)CC6)C[C@H]5/C=C\CC[C@@H](C)C[C@@H](C)[C@H](NC(=O)OC5(C(F)(F)F)CCCOC5)C(=O)N4C3)cc(-c3cncs3)n2)cc1` (stereo partly drawn) [Compound 1017, 3-(trifluoromethyl)tetrahydro-2H-pyran-3-yl ((2R,6S,7R,9R,13aS,14aR,16aS,Z)-2-((2-(4-isopropoxyphenyl)-6-(thiazol-5-yl)pyridin-4-yl)oxy)-7,9-dimethyl-14a-(((1-methylcyclopropyl)sulfonyl)carbamoyl)-5,16-dioxo-1,2,3,5,6,7,8,9,10,11,13a,14,14a,15,16,16a-hexadecahydrocyclopropa[e]pyrrolo[1,2-a][1,4]diazacyclopentadecin-6-yl)carbamate], the EC50 in the experiment with HCV GT1a(H77) replicon (read-out: LE_1a (EC50)) was 0.95 nM; with HCV GT1a(H77) replicon (read-out: LE_1a (EC50, range)), 0.51 to 1 nM; with HCV GT1b(Con1) replicon (read-out: LE_1b (EC50)), 0.82 nM; in the experiment on HCV GT1b(Con1) replicon (read-out: LE_1b (EC50, range)) it was 0.51 to 1 nM.
As to `CC(C)Oc1ccc(-c2cc(O[C@@H]3C[C@H]4C(=O)N[C@]5(C(=O)NS(=O)(=O)C6(C)CC6)C[C@H]5/C=C\CC[C@H](C)C[C@@H](C)[C@H](NC(=O)OC5(C(F)(F)F)CCCOC5)C(=O)N4C3)cc(-c3cncs3)n2)cc1` (stereo partly drawn) [Compound 1018, 3-(trifluoromethyl)tetrahydro-2H-pyran-3-yl ((2R,6S,7R,9S,13aS,14aR,16aS,Z)-2-((2-(4-isopropoxyphenyl)-6-(thiazol-5-yl)pyridin-4-yl)oxy)-7,9-dimethyl-14a-(((1-methylcyclopropyl)sulfonyl)carbamoyl)-5,16-dioxo-1,2,3,5,6,7,8,9,10,11,13a,14,14a,15,16,16a-hexadecahydrocyclopropa[e]pyrrolo[1,2-a][1,4]diazacyclopentadecin-6-yl)carbamate], the EC50 with HCV GT1a(H77) replicon (read-out: LE_1a (EC50, range)) was in the range of 5.01 to 35 nM; in the experiment on HCV GT1b(Con1) replicon (read-out: LE_1b (EC50, range)), 1.01 to 5 nM.
On the same counts, the results for `CC(C)Oc1ccc(-c2cc(O[C@@H]3C[C@H]4C(=O)N[C@]5(C(=O)NS(=O)(=O)C6(C)CC6)C[C@H]5/C=C\CC[C@@H](C)C[C@@H](C)[C@H](NC(=O)OC(C)(C)C(F)(F)F)C(=O)N4C3)cc(-c3ncccn3)n2)cc1` [Compound 1019, 1,1,1-trifluoro-2-methylpropan-2-yl ((2R,6S,7R,9R,13aS,14aR,16aS,Z)-2-((2-(4-isopropoxyphenyl)-6-(pyrimidin-2-yl)pyridin-4-yl)oxy)-7,9-dimethyl-14a-(((1-methylcyclopropyl)sulfonyl)carbamoyl)-5,16-dioxo-1,2,3,5,6,7,8,9,10,11,13a,14,14a,15,16,16a-hexadecahydrocyclopropa[e]pyrrolo[1,2-a][1,4]diazacyclopentadecin-6-yl)carbamate] are 1.01 to 5 nM and 1.01 to 5 nM.
Consider `CC(C)Oc1ccc(-c2cc(O[C@@H]3C[C@H]4C(=O)N[C@]5(C(=O)NS(=O)(=O)C6(C)CC6)C[C@H]5/C=C\CC[C@H](C)C[C@@H](C)[C@H](NC(=O)OC(C)(C)C(F)(F)F)C(=O)N4C3)cc(-c3ncccn3)n2)cc1` [Compound 1020, 1,1,1-trifluoro-2-methylpropan-2-yl ((2R,6S,7R,9S,13aS,14aR,16aS,Z)-2-((2-(4-isopropoxyphenyl)-6-(pyrimidin-2-yl)pyridin-4-yl)oxy)-7,9-dimethyl-14a-(((1-methylcyclopropyl)sulfonyl)carbamoyl)-5,16-dioxo-1,2,3,5,6,7,8,9,10,11,13a,14,14a,15,16,16a-hexadecahydrocyclopropa[e]pyrrolo[1,2-a][1,4]diazacyclopentadecin-6-yl)carbamate], for which the EC50 in the experiment on HCV GT1a(H77) replicon (read-out: LE_1a (EC50, range)) fell in the range of 5.01 to 35 nM; with HCV GT1b(Con1) replicon (read-out: LE_1b (EC50, range)) it was 1.01 to 5 nM.
As for `CC(C)Oc1ccc(-c2cc(O[C@@H]3C[C@H]4C(=O)N[C@]5(C(=O)NS(=O)(=O)C6(C)CC6)C[C@H]5/C=C\CC[C@@H](C)C[C@@H](C)[C@H](NC(=O)OC(C)(C)C(F)(F)F)C(=O)N4C3)cc(-c3ccccn3)n2)cc1` [Compound 1021, 1,1,1-trifluoro-2-methylpropan-2-yl ((2R,6S,7R,9R,13aS,14aR,16aS,Z)-2-((6-(4-isopropoxyphenyl)-[2,2′-bipyridin]-4-yl)oxy)-7,9-dimethyl-14a-(((1-methylcyclopropyl)sulfonyl)carbamoyl)-5,16-dioxo-1,2,3,5,6,7,8,9,10,11,13a,14,14a,15,16,16a-hexadecahydrocyclopropa[e]pyrrolo[1,2-a][1,4]diazacyclopentadecin-6-yl)carbamate], the EC50 in the experiment on HCV GT1a(H77) replicon (read-out: LE_1a (EC50, range)) fell in the range of 1.01 to 5 nM; in the experiment on HCV GT1b(Con1) replicon (read-out: LE_1b (EC50, range)), 0.51 to 1 nM.
On the same counts, the results for `CC(C)Oc1ccc(-c2cc(O[C@@H]3C[C@H]4C(=O)N[C@]5(C(=O)NS(=O)(=O)C6(C)CC6)C[C@H]5/C=C\CC[C@H](C)C[C@@H](C)[C@H](NC(=O)OC(C)(C)C(F)(F)F)C(=O)N4C3)cc(-c3ccccn3)n2)cc1` [Compound 1022, 1,1,1-trifluoro-2-methylpropan-2-yl ((2R,6S,7R,9S,13aS,14aR,16aS,Z)-2-((6-(4-isopropoxyphenyl)-[2,2′-bipyridin]-4-yl)oxy)-7,9-dimethyl-14a-(((1-methylcyclopropyl)sulfonyl)carbamoyl)-5,16-dioxo-1,2,3,5,6,7,8,9,10,11,13a,14,14a,15,16,16a-hexadecahydrocyclopropa[e]pyrrolo[1,2-a][1,4]diazacyclopentadecin-6-yl)carbamate] are 5.01 to 35 nM and 1.01 to 5 nM.
As for `C[C@@H]1CC/C=C\[C@@H]2C[C@@]2(C(=O)NS(=O)(=O)C2(C)CC2)NC(=O)[C@@H]2C[C@@H](Oc3cc(-c4nccs4)nc(-c4nccs4)c3)CN2C(=O)[C@@H](NC(=O)OC(C)(C)C(F)(F)F)[C@H](C)C1` [Compound 1023, 1,1,1-trifluoro-2-methylpropan-2-yl ((2R,6S,7R,9R,13aS,14aR,16aS,Z)-2-((2,6-di(thiazol-2-yl)pyridin-4-yl)oxy)-7,9-dimethyl-14a-(((1-methylcyclopropyl)sulfonyl)carbamoyl)-5,16-dioxo-1,2,3,5,6,7,8,9,10,11,13a,14,14a,15,16,16a-hexadecahydrocyclopropa[e]pyrrolo[1,2-a][1,4]diazacyclopentadecin-6-yl)carbamate], the EC50 in the experiment on HCV GT1a(H77) replicon (read-out: LE_1a (EC50)) is 0.46 nM; with HCV GT1a(H77) replicon (read-out: LE_1a (EC50, range)), 0.1 to 0.5 nM; in the experiment on HCV GT1b(Con1) replicon (read-out: LE_1b (EC50)) it was 0.4 nM; in the experiment with HCV GT1b(Con1) replicon (read-out: LE_1b (EC50, range)) it was 0.1 to 0.5 nM.
For the molecule `C[C@H]1CC/C=C\[C@@H]2C[C@@]2(C(=O)NS(=O)(=O)C2(C)CC2)NC(=O)[C@@H]2C[C@@H](Oc3cc(-c4nccs4)nc(-c4nccs4)c3)CN2C(=O)[C@@H](NC(=O)OC(C)(C)C(F)(F)F)[C@H](C)C1` [Compound 1024, 1,1,1-trifluoro-2-methylpropan-2-yl ((2R,6S,7R,9S,13aS,14aR,16aS,Z)-2-((2,6-di(thiazol-2-yl)pyridin-4-yl)oxy)-7,9-dimethyl-14a-(((1-methylcyclopropyl)sulfonyl)carbamoyl)-5,16-dioxo-1,2,3,5,6,7,8,9,10,11,13a,14,14a,15,16,16a-hexadecahydrocyclopropa[e]pyrrolo[1,2-a][1,4]diazacyclopentadecin-6-yl)carbamate], the EC50 in the experiment on HCV GT1a(H77) replicon (read-out: LE_1a (EC50, range)) lay within 1.01 to 5 nM; in the experiment on HCV GT1b(Con1) replicon (read-out: LE_1b (EC50, range)), 0.51 to 1 nM.
In the case of `C[C@@H]1CC/C=C\[C@@H]2C[C@@]2(C(=O)NS(=O)(=O)C2(C)CC2)NC(=O)[C@@H]2C[C@@H](Oc3ccnc(-c4nccs4)c3)CN2C(=O)[C@@H](NC(=O)OC(C)(C)C(F)(F)F)[C@H](C)C1` [Compound 1025, 1,1,1-trifluoro-2-methylpropan-2-yl ((2R,6S,7R,9R,13aS,14aR,16aS,Z)-7,9-dimethyl-14a-(((1-methylcyclopropyl)sulfonyl)carbamoyl)-5,16-dioxo-2-((2-(thiazol-2-yl)pyridin-4-yl)oxy)-1,2,3,5,6,7,8,9,10,11,13a,14,14a,15,16,16a-hexadecahydrocyclopropa[e]pyrrolo[1,2-a][1,4]diazacyclopentadecin-6-yl)carbamate], the EC50 lay within 1.01 to 5 nM with HCV GT1a(H77) replicon (read-out: LE_1a (EC50, range)) and 0.51 to 1 nM with HCV GT1b(Con1) replicon (read-out: LE_1b (EC50, range)).
`C[C@@H]1CC/C=C\[C@@H]2C[C@@]2(C(=O)NS(=O)(=O)C2CC2)NC(=O)[C@@H]2C[C@@H](Oc3cc(Cl)ccn3)CN2C(=O)[C@@H](NC(=O)OC(C)(C)C(F)(F)F)[C@H](C)C1` [Compound 1026, 1,1,1-trifluoro-2-methylpropan-2-yl ((2R,6S,7R,9R,13aS,14aR,16aS,Z)-2-((4-chloropyridin-2-yl)oxy)-14a-((cyclopropylsulfonyl)carbamoyl)-7,9-dimethyl-5,16-dioxo-1,2,3,5,6,7,8,9,10,11,13a,14,14a,15,16,16a-hexadecahydrocyclopropa[e]pyrrolo[1,2-a][1,4]diazacyclopentadecin-6-yl)carbamate]: the EC50 lay within 5.01 to 35 nM in the experiment with HCV GT1a(H77) replicon (read-out: LE_1a (EC50, range)) and 5.01 to 35 nM in the experiment on HCV GT1b(Con1) replicon (read-out: LE_1b (EC50, range)).
For `CC(C)Oc1ccc(-c2cc(Cl)cc(O[C@@H]3C[C@H]4C(=O)N[C@]5(C(=O)NS(=O)(=O)C6(C)CC6)C[C@H]5/C=C\CC[C@@H](C)C[C@@H](C)[C@H](NC(=O)OC(C)(C)C(F)(F)F)C(=O)N4C3)n2)cc1` [Compound 1027, 1,1,1-trifluoro-2-methylpropan-2-yl ((2R,6S,7R,9R,13aS,14aR,16aS,Z)-2-((4-chloro-6-(4-isopropoxyphenyl)pyridin-2-yl)oxy)-7,9-dimethyl-14a-(((1-methylcyclopropyl)sulfonyl)carbamoyl)-5,16-dioxo-1,2,3,5,6,7,8,9,10,11,13a,14,14a,15,16,16a-hexadecahydrocyclopropa[e]pyrrolo[1,2-a][1,4]diazacyclopentadecin-6-yl)carbamate], the EC50 lay within 1.01 to 5 nM in the experiment with HCV GT1a(H77) replicon (read-out: LE_1a (EC50, range)) and 1.01 to 5 nM with HCV GT1b(Con1) replicon (read-out: LE_1b (EC50, range)).
